Assay results reported in patent US20130029928A1 (priority 2010, published 2013).
Where “and” joins values, the source holds several entries; their conditions need not be identical. Equal values may be shown once. Read-outs that look alike come from different tables or passages of the source. Marks after values point to notes of the source that are not given here.

Tests used:
[1] = test system: PANC-1 cells; test: Western blot of PCNA and cleaved PARP in PANC-1 cells; assay type: cell-based, human; settings: 450 μM, 24 hrs
Protocol: PCNA is a marker for cell proliferation and cleaved PARP is representative of caspase cleavage and apoptosis. […] Western blot analysis was performed with increasing amounts of protein, ranging between 2 and 20 μg (lanes 1-8). Positive control protein was derived from MCF7 cells (PCNA blot, lane 9) or from HeLa cells treated with staurosporine for 3 hours (Cleaved PARP blot, lanes 9, 10). Levels of total β-Actin are shown as a control for protein loading.
Cells respond to the accumulation of unfolded proteins in the ER by a rescue process called the unfolded protein response (UPR). However, if the unfolded protein accumulation is persistent and the stress cannot be relieved, UPR signalling switches from prosurvival to proapoptotic (Kim (2006)), (Szegezdi (2006)), usually involving processing of caspases (Chang (2006)). Consistent with this hypothesis, CXR1002-treated PANC-1 cells show reduced proliferation and cleavage of the caspase substrate poly-ADP ribose polymerase (PARP) (FIG. 2) in PANC-1 cells.

[2] = test system: MCF-7; test: SRB cytotoxicity assay 48 hr; assay type: cell-based, human; settings: read-out: IC50 Values After 48 Hrs Exposure
Protocol: (§3) The SRB assay was performed according to the method specified by the NIC/NIH. […] Assay replicates were independent in time and up to 4 replicates were performed per cell line.

[3] = test system: PANC-1; test: ATP depletion cytotoxicity assay 48 hr; assay type: cell-based, human
Protocol: (§4) Following exposure to Test Items, the CellTitre-Glo Luminescent Cell Viability Assay to measure ATP content was performed according to the manufacturer's detailed instructions (Promega Corporation, Technical Bulletin No. 288, and Cell notes, Issue 10, 2004).
(§5) Cells were plated at the optimal plating density for that cell line in 96-well plates and allowed to attach overnight. […] Cells were exposed to these compounds in Roswell Park Memorial Institute (RPMI) medium containing 10% Foetal Calf Serum (FCS) and 2 mM Glutamine at 37° C. and 5% CO2 for 48 hours. There were 3 replicates for each test item concentration.
(§6) Following exposure to Test Items, the CellTitre-Glo Luminescent Cell Viability Assay to measure ATP content will be performed according to the manufacturer's detailed instructions (Promega Corporation, Technical Bulletin No. 288, and Cell notes, Issue 10, 2004).

[4] = test system: patients with advanced cancer; test: Phase I study CXR1002-001: anti-tumour response; assay type: in vivo, human
[5] = test system: OVCAR-3; test: ATP depletion cytotoxicity assay 48 hr; assay type: cell-based; settings: Homo sapiens
Protocol: (§7) Assay replicates were independent in time and up to 4 replicates were performed per cell line.
(§8) Cells were plated at the optimal plating density for that cell line in 96-well plates and allowed to attach overnight. The next day, the medium was removed and replaced with fresh medium containing the dose ranges of test items. […] There were 3 replicates for each test item concentration.
as §4
Cells were plated at the optimal plating density for that cell line in 96-well plates and allowed to attach overnight. The next day, cells were pre-treated with the inhibitors UO126 or LY294002 (see Tables 18 & 20) for 2 hrs, the medium was removed and replaced with fresh medium containing the appropriate dose of the test item. […] Cells were exposed to these compounds in Roswell Park Memorial Institute (RPMI) medium containing 10% Foetal Calf Serum (FCS) and 2 mM Glutamine at 37° C. and 5% CO2 for 48 hours. There were 3 replicates for each test item concentration. […]

[6] = test system: U2OS; test: ATP depletion cytotoxicity assay 48 hr; assay type: cell-based; settings: Homo sapiens, Study CXR0798, read-out: IC50 1
Protocol: as §3

[7] = Plasma protein binding; assay type: in vitro ADME
[8] = HT-29 xenograft in nude mice; assay type: in vivo, nude mouse; settings: nude, mouse, plasma, intraperitoneal, 25 mg/kg; HT-29 model; 24 hrs post last dose; Day 29
Text: Animals were inoculated with a tumour cell suspension on each flank and the tumours were allowed to grow for 16 days.
These effects are consistent with a transient effect on the liver associated with mild toxicity and reversible liver enlargement. In rodents, this type of effect is usually due to hepatic PPARα activation associated with peroxisome proliferation.

[9] = test system: PANC-1 cells; test: Transcription profiling of CXR1002-treated PANC-1 cells (ER stress genes, Ingenuity); assay type: cell-based, human; settings: PANC-1, 24 hrs at IC15
Text: Representation analysis of the in vitro 4996 signature list identified a number of pathways that were over-represented.

[10] = test system: BxPc3; test: ATP depletion cytotoxicity assay 48 hr; assay type: cell-based, human
Protocol: as §4, §5, §6

[11] = test system: CaCo-2; test: SRB cytotoxicity assay 48 hr; assay type: cell-based, human; settings: read-out: IC50 Values After 48 Hrs Exposure
Protocol: as §3

[12] = test system: pregnenolone X receptor (PXR); settings: species-specific basis; Ren (2009); cited from earlier work
[13] = test system: SW1353; test: ATP depletion cytotoxicity assay 48 hr; assay type: cell-based, human
Protocol: as §4, §5, §6

[14] = test system: PANC-1 (pancreas) xenograft tumours; test: PANC-1 xenograft in female nude mice; assay type: in vivo, nude mouse
Protocol: (§1) A further xenograft model was performed using the human pancreatic cell line PANC-1. This tumour is slow growing in vivo. […] For various reasons, animals were lost during the study and the final group sizes were small. […] This experiment is currently being repeated to try to obtain larger group sizes at experimental completion.
(§2) In-life and terminal blood samples taken from the mice were analysed for CXR1002 levels using a validated analytical method. In-life samples averaged 146 μM and terminal blood samples (24 hours post final dose) averaged 474 μM (FIG. 7). Plasma values were higher than the whole blood values. This may be attributed to the duration of dosing. […] Furthermore, the erythrocyte/plasma partitioning coefficient (which measures the amount of drug bound to red cells compared to plasma binding) may contribute to the observed differences.

[15] = PANC-1 xenograft in female nude mice; assay type: in vivo, nude mouse; settings: female, nude, mouse, plasma, 25 mg/kg; PANC-1 model; 24 hrs post last dose; Day 88
Protocol: as §1, §2

[16] = test system: MES-SA; test: ATP depletion cytotoxicity assay 48 hr; assay type: cell-based; settings: Homo sapiens, Study CXR0798, read-out: IC50 1
Protocol: as §3

[17] = test system: panel of human tumour-derived cell lines; test: Hoechst 3342 staining (apoptotic cells) in the SRB cell line panel; assay type: cell-based
[18] = test system: H (chondrosarcoma); test: ATP depletion cytotoxicity assay 48 hr; settings: H
Protocol: as §7, §8
Cells were plated at the optimal plating density for that cell line in 96-well plates and allowed to attach overnight. The next day, cells were pre-treated with the inhibitors UO126 or LY294002 (see Tables 18 & 20) for 2 hrs, the medium was removed and replaced with fresh medium containing the appropriate dose of the test item. […] Cells that were to be treated with DPQ received no pre-treatment. […] There were 3 replicates for each test item concentration.

[19] = test system: A2780; test: SRB cytotoxicity assay 48 hr; assay type: cell-based, human; settings: read-out: IC50 Values After 48 Hrs Exposure
Protocol: as §3

[20] = test system: HepG2; test: ATP depletion cytotoxicity assay 48 hr; assay type: cell-based, human
Protocol: as §7, §8, §4
Cells were plated at the optimal plating density for that cell line in 96-well plates and allowed to attach overnight. The next day, cells were pre-treated with the inhibitors UO126 or LY294002 (see Tables 18 & 20) for 2 hrs, the medium was removed and replaced with fresh medium containing the appropriate dose of the test item. […] Cells were exposed to these compounds in Roswell Park Memorial Institute (RPMI) medium containing 10% Foetal Calf Serum (FCS) and 2 mM Glutamine at 37° C. and 5% CO2 for 48 hours. There were 3 replicates for each test item concentration.
as §6

[21] = test system: HepG2 (liver) xenograft tumours; test: HepG2 xenograft model of liver carcinoma; assay type: in vivo, nude mouse
Text: There was no obvious difference between the two different dosing regimens.

[22] = test system: p21^WAF1; test: p21WAF1 transcription reporter (hCG excretion) in A2780/p21WAF1 cells; assay type: cell-based, human; settings: 24 hrs exposure; β-hCG excretion
[23] = ATP depletion, 48 hrs, read-out: IC50 1-4 (independent replicates)
[24] = read-out: IC50 1-4 (independent replicates)

Q: Which “PCNA protein level (cell proliferation marker)” value [1] does the source give for O=C(O)C(F)(F)C(F)(F)C(F)(F)C(F)(F)C(F)(F)C(F)(F)C(F)(F)F [CXR1002] here?
A: reduced PCNA levels

Q: And the “cleaved PARP protein level (apoptosis marker)” value [1]?
A: increased cleaved PARP

Q: What about the IC50 [2] of the same compound?
A: 276 ± 33.2 µM

Q: What about the IC50 [3, 23] of the same compound?
A: > 1 mM (2×) and 880 µM

Q: What about the IC50 ([3]; Homo sapiens, PANC-1, 48 h, ATP depletion, 48 hrs, read-out: IC50 1-4 (independent replicates)) of the same compound?
A: > 1000 µM

Q: What about the IC50 ([3]; Homo sapiens, PANC-1, 48 h, ATP depletion, 48 hrs, read-out: IC50 Mean) of the same compound?
A: > 1000 µM

Q: What about the IC50 ([3]; Homo sapiens, PANC-1, 48 h, Example 7, 48 hour, CXR1002 0-1 mM, U0126 fixed 10 μM where combined, read-out: IC50) of the same compound?
A: > 1000 µM

Q: And the “On-Study Duration” value ([4]; 50 mg/week, pancreatic)?
A: 35 weeks

Q: What about the “On-Study Duration” value ([4]; 100 mg/week, colorectal) of the same compound?
A: 20 weeks

Q: What about the “On-Study Duration” value ([4]; 200 mg/week, anaplastic thyroid, patient remains on study) of the same compound?
A: 22* weeks

Q: What about the “On-Study Duration” value ([4]; 200 mg/week, cervical, patient remains on study) of the same compound?
A: 22* weeks

Q: And the best response ([4]; investigator assessment)?
A: stable disease

Q: And the “duration of stable disease” value ([4]; one patient with pancreatic cancer)?
A: 7 months

Q: And the IC50 [5, 24]?
A: 650 µM

Q: What about the IC50 ([5]; read-out: IC50 Mean) of the same compound?
A: 650 µM

Q: What about the IC50 [6] of the same compound?
A: > 1000 µM

Q: What about the plasma protein binding [7] of the same compound?
A: highly plasma protein bound

Q: What about the concentration at 24 h [8] of the same compound?
A: 277 µM

Q: What about the ATF3 induction [9] of the same compound?
A: 3 fold

Q: What about the IC50 [10, 23] of the same compound?
A: 350 µM and 400 µM

Q: And the IC50 ([10]; Homo sapiens, BXPC-3, 48 h, ATP depletion, 48 hrs, read-out: IC50 1-4 (independent replicates))?
A: 370 µM

Q: What about the IC50 ([10]; Homo sapiens, BXPC-3, 48 h, ATP depletion, 48 hrs, read-out: IC50 Mean) of the same compound?
A: 373 µM

Q: What about the IC50 ([10]; Homo sapiens, BXPC-3, 48 h, Example 7, 48 hour, CXR1002 0-1 mM, U0126 fixed 10 μM where combined, read-out: IC50) of the same compound?
A: 381 µM

Q: What about the IC50 [11] of the same compound?
A: 708 ± 159 µM

Q: What about the “activation of PXR” value [12] of the same compound?
A: are activated

Q: What about the IC50 ([13]; Homo sapiens, SW1353, 48 h, read-out: IC50 1-4 (independent replicates)) of the same compound?
A: > 1000 µM

Q: What about the IC50 ([13]; Homo sapiens, SW1353, 48 h, read-out: IC50 Mean) of the same compound?
A: > 1000 µM

Q: And the IC50 ([13]; read-out: IC50 1-4 (independent replicates), ATP depletion, 48 hrs, SW1353)?
A: > 1000 µM

Q: What about the tumour growth ([14]; 25 mg/kg, 3 times per week) of the same compound?
A: substantially delayed tumour growth

Q: What about the “Absolute Tumour Volume as a Percentage of Saline Control” value ([14]; PANC-1, 25 mg/kg 3 times per week, Day 82) of the same compound?
A: 50.13%

Q: And the “Terminal CXR1002 plasma levels” value ([14]; PANC-1 model, 24 hrs post last dose, Day 88)?
A: 474 ± 153 µM

Q: And the “In-life blood CXR1002 level (average)” value ([14]; PANC-1 model, in-life samples)?
A: 146 µM

Q: What about the concentration at 24 h [15] of the same compound?
A: 474 µM

Q: And the IC50 [16]?
A: > 1000 µM

Q: What about the induction of apoptosis ([17]; 10 μM) of the same compound?
A: little effect

Q: What about the induction of apoptosis ([17]; 30 μM) of the same compound?
A: variable responses

Q: What about the induction of apoptosis ([17]; 300 μM) of the same compound?
A: marked induction of apoptosis

Q: And the IC50 ([18]; Example 7, 48 hour, CXR1002 0-1 mM, U0126 fixed 10 μM where combined)?
A: 817 µM

Q: What about the IC50 ([18]; read-out: IC50 1-4 (independent replicates), ATP depletion, 48 hrs) of the same compound?
A: 550 µM and 555 µM and 800 µM

Q: And the IC50 ([18]; read-out: IC50 Mean, ATP depletion, 48 hrs)?
A: 635 µM

Q: And the IC50 [19]?
A: 238 ± 7.5 µM

Q: And the IC50 ([20]; Homo sapiens, HepG2, 48 h, read-out: IC50 1-4 (independent replicates))?
A: 240 µM

Q: What about the IC50 ([20]; Homo sapiens, HepG2, 48 h, read-out: IC50 Mean) of the same compound?
A: 273 µM

Q: What about the IC50 [20, 24] of the same compound?
A: 230 µM and 350 µM

Q: And the growth inhibition response ([21]; 25 mg/kg 2× or 3× per week)?
A: modest response

Q: And the “Absolute Tumour Volume as a Percentage of Saline Control” value ([21]; HepG2, 25 mg/kg, combined regimens, Day 53)?
A: 77.05%

Q: And the “Terminal CXR1002 plasma levels” value ([21]; HepG2 model, ×3 weekly regimen, Days 60-64)?
A: 520 µM and 520 ± 46 µM

Q: And the “activation of transcription of p21^WAF1” value [22]?
A: did not activate transcription
